Assay results taken from patent US20080107603A1, “Neuroprotectant methods, compositions, and screening methods thereof” (priority 2002, published 2008).
Read-outs that look alike come from different tables or passages of the source.

Tests used:
[1] = Sheep; cited from earlier work
[2] = tested on: retinal neurons in the retinal ganglion cell layer; assay: NMDA retinal model (intravitreal NMDA, cell counts in retinal wholemounts); format: in vivo, Sprague-Dawley rats
Procedure: Young adult female Sprague-Dawley rats were used in the present experiments. The animals were supplied by Harlan, England and maintained in the Comparative Biology Unit at Charing Cross Hospital Campus, Imperial College. Animal procedures used were in accordance to regulations of Home Office, UK. The animals were divided into four groups. The first group consists of 6 normal rats that received no treatment. A further 9 animals were anesthetized with. Hypnorm™ (0.02 mg of fentanyl citrate and 0.54 mg fluanisone/100 g body weight) and Hypnovel™ (0.27 mg midazolam/100 g body weight) before they received unilateral intravitreal injection of 5 μl of 4 mM NMDA to the vitreous body of the left eyes, with the uninjected right eyes served as controls. Six of the experimental animals injected with NMDA received an additional intraperitoneal injection of L-ergothioneine 0.2 ml of 70 mg/ml (n=3), or phosphate buffer saline (PBS) as vehicle control 24 h and 30 min before injection of NMDA.
Further intraperitoneal injection of L-ergothioneine, or PBS was performed at 1 h, 24 h, 48 h and 72 h time points, and 3 injections per week for another three weeks. Six weeks after injection of NMDA, all animals were anaesthetized deeply again and perfused with physiological saline followed by 4% paraformaldehyde in phosphate buffer (pH 7.4). The eyeballs were collected in the same fixative and post-fixed for another half an hour before the retinas were dissected out in PBS. For each retina, four radial cuts were made before the retinas were flatly mounted onto gelatin-coated slides, and air-dried slowly in a moist chamber for 2-3 days.
The retinal whole-mounts were then stained for cresyl violet and cover slipped. Analysis was performed under a Wild microscope equipped with a camera lucida drawing tube. The number of retinal neurons in the retinal ganglion cell layer was counted and cell sizes measured at a magnification of 300× and in an area of 150×150 μm in the central, intermediate and peripheral parts of the four retinal quadrants. The neurons counted were divided into two groups with somata smaller than 6 μm, or equal to or larger than 6 μm in diameter. The majority of larger neurons are retinal ganglion cells while smaller somata are primarily non-ganglion cells or displaced amacrine cells (Perry (1981) Neuroscience 6:931-944). The numbers of cells were: counted in a total of 12 fields of individual retinas an analyzed statistically. The data is expressed as mean±S.E.M. Differences between values were compared by one-way analysis of variance (ANOVA).

[3] = Cat; cited from earlier work
PC12 cells = assay: Lipid peroxidation (MDA, BIOXYTECH LPO-586); format: cell-based, Rat; settings: Aβ25-35-treated PC12 cells; pretreatment for 30 min
Procedure: The extent of lipid peroxidation in PC12 cells treated with Aβ25-35 was assessed using the commercially available calorimetric assay kit BIOXYTECH LPO-586 (OXIS Research, Portland, Oreg.). After exposure to 50 μM Aβ25-35 in the presence or absence of L-ergothioneine at 37° C. for 24 h, PC12 cells were harvested and homogenized in 20 mM Tris-HCl buffer (pH 7.4), containing 0.5 mM butylated hydroxytoluene to prevent sample oxidation. After centrifugation, 3.25 volumes of diluted R1 reagent (10.3 mM N-methyl-2-phenylindole in acetonitrile) was added to the supernatant, followed by gentle vortex mixing following the addition of 0.75 ml of 37% (v/v) HCl, the mixtures were incubated at 45° C. for 60 min. After cooling and centrifugation, the absorbance of the clear supernatant was read at 590 nm. The protein concentration was determined using the BCA protein assay kit.

PARP = assay: Western blot, Aβ25-35-induced cleavage of PARP; format: cell-based, Rat; settings: 25 μM Aβ25-35, 36 h
Procedure: (§1) After treatment, cells (1×10^7 cells/7 ml in 100φ dish) were collected and washed with PBS. After centrifugation, cell lysis was carried out at 4° C. by vigorous shaking for 15 min in RIPA buffer (150 mM NaCl, 1% NP-40, 0.5% sodium deoxycholate, 0.1% SDS, 50 mM Tris-HCl (pH 7.4), 50 mM glycerphosphate, 20 mM NaF, 20 mM EGTA, 1 mM DTT, 1 mM Na3VO4 and protease inhibitors). After centrifugation at 15,000 rpm for 15 min, supernatant was separated and stored at −70° C. until use. The protein concentration was determined by using the bicinchrinic acid (BCA) protein assay kit (Pierce, Rockford, Ill., USA). After addition of sample loading buffer, protein samples were electrophoresed on a 12.5% SDS-polyacrylamide gel. Proteins were transferred to polyvinylidene difluoride blots at 300 mA for 3 h. The blots were blocked for 1 h at room temperature in fresh blocking buffer (0.1% Tween-20 in Tris-buffered saline, pH 7.4 containing 5% non-fat dried milk). Dilutions (1:1000) of primary anti-poly(ADP-ribose)polymerase (PARP), anti-Bcl-XL and anti-Bax antibodies were made in PBS with 3% non-fat dry milk. Following three washes with PBST (PBS and 0.1% Tween-20), the blots were incubated with horseradish peroxidase-conjugated secondary antibodies in PBS with 3% non-fat dry milk for 1 h at room temperature. […]

Bax and Bcl-XL = assay: Western blot, levels of Bax and Bcl-XL; format: cell-based, Rat; settings: 25 μM Aβ25-35, 36 h
Procedure: as §1

[4] = NMDA-injected retina, L-ergothioneine i.p. 0.2 ml of 70 mg/ml, 6 weeks after NMDA
[5] = uninjected control eyes of L-ergothioneine treated animals

SMILES: C[N+](C)(C)[C@@H](Cc1c[nH]c(=S)[nH]1)C(=O)[O-] [L-ergothioneine, 2-mercaptohistidine trimethylbetaine]
- L-Ergothioneine Concentration (mg/100 ml blood) [1]: 2-6 mg/100 ml blood
- neuroprotective effect ([2]; NMDA retinal model, versus PBS): significant neuroprotective effect
- loss of ganglion cells [2, 4]: 44%
- loss of small or non-ganglion cells [2, 4]: 31%
- loss of ganglion cells [2, 5]: 7%
- loss of non-ganglion cells [2, 5]: 4%
- L-Ergothioneine Concentration (mg/100 ml blood) [3]: 0.5-2 mg/100 ml blood
- lipid peroxidation (PC12 cells): concentration dependent inhibition
- cleavage of PARP (PARP): inhibited
- ratio of Bax to Bcl-XL (Bax and Bcl-XL): substantially reduced
